Tests used:
RhlR = biological target: T1, RhlR (Pseudomonas aeruginosa, UniProt P54292); assay: E. coli reporter gene primary agonism assay, RhlR; type: cell-based; details: compounds at 100 mm; 900 mm BHL = 100%; error ±10%; selected data reproduced from Welsh et al., 2015
T1 construct: expressed in transfected cells; host or cells: E. coli JLD271
Experimental: Percent agonism of a given non-native inducer in a given bacterium and QS system receptor is measured with resepct to the maximum level of agonism (activation) by the native ligand of that receptor in the given bacterium. Percent antagonism is measured in competitive assays. The QS system of interest is activated to 100% with added or endogenous native ligand and the % antagonism of the non-native inducer is assessed with respect to 100% activation by the native inducer. The native ligand which induces LasR is OdDHL, which induces RhlR is BHL and which induces PqsR is PQS. As described herein and in cited references, assays for assessment of % agonism or % atangonism may be performed in E. coli systems (heterologous) or in the bacterium of interest, e.g., Pseudomonas. Dependent upon the assay system employed native ligand may be endogenously present or it may be exogenously supplied to the assay system. […] In antagonism assays using the native strains with functional QS systems, e.g., those of P. aeruginosa, endogenous native ligand is made in the system, so no native ligand is added. In native strains having one or more non-functional QS systems (mutant strains), e.g., P. aeruginosa mutants with non-functional QS systems, native ligand is added at about 10-100× the EC50 of the native ligand. In the agonism assay, native ligand is added as a control. Details of the assays are provided herein in Example 9 and in references cited in Example 9.

P. aeruginosa (PAO1) [1] = assay: Pyocyanin assay; type: cell-based, Pseudomonas aeruginosa; details: MOPS Glutamate and Glucose media, complete or iron/phosphate depleted, 17 h, 100 μM (compounds 1, 2, 3), 25 μM (compound 4), relative to DMSO
Experimental: A. Pyocyanin Assay Protocol. The amount of pyocyanin in P. aeruginosa culture supernatants was measured following a reported protocol (O'Loughlin et al., 2013) with modifications. A 10 mL overnight culture of P. aeruginosa PAO1 was grown for 16 h. DMSO stock solutions of test compounds (20 mM) were prepared, and 10 μL or 5 μL aliquots were added to sterile 15 mL borosilicate glass test tubes. An inoculating culture was prepared by diluting the overnight culture 1:100 into freshly prepared assay medium (see above), and 2 mL aliquots of this subculture were added to each test tube (0.5% DMSO, final). The cultures were grown for 17 h, and the final cell density measured by reading OD600. Relative pyocyanin levels were measured by first pelleting 1.5 mL of well-mixed culture at 4,000 g for 10 min, transferring 200 μL of the resulting supernatant to a clear, plastic 96-well microtiter plate, and reading absorbance at 695 nm. Media background absorbance (measured from a “no bacteria” control) was subtracted, the resulting values growth normalized by dividing by the final OD600378, and the data plotted relative to a DMSO-treated positive control. B. Rhamnolipid Assay Protocol. Rhamnolipid was quantified following a reported protocol (Koch et al., 1991) with modifications. Assay cultures were prepared and grown in an identical manner to the pyocyanin assay above. Aliquots of the final culture supernatant (1 mL) were transferred to 1 dram glass vials and extracted twice with 1 mL diethyl ether. The pooled organic fractions were evaporated to dryness, and the resulting residue reconstituted in 200 μL de-ionized water. In a 1.7 mL plastic centrifuge tube, 50 μL of this extract was diluted into 450 μL of a solution of 0.19% (w/v) orcinol in 50% (v/v) concentrated H2SO4 (or 20 μL extract into 480 μL orcinol solution for cultures grown in MOPS Glucose medium). The tubes were vortexed thoroughly to mix and incubated in an 80° C. heating block for 30 min. After briefly cooling to room temperature, 200 μL of the resulting yellow to yellow-orange solution was transferred to a clear 96-well microtiter plate, and the absorbance at 421 nm measured. Media background absorbance (measured from a “no bacteria” control) was subtracted, the resulting values growth normalized by dividing by the final OD600, and the data plotted relative to a DMSO-treated positive control. C. Elastase B Assay Protocol. The amount of elastase B in P. aeruginosa culture supernatants was measured following a reported protocol (Geske et al., 2007) with modifications. Assay cultures were prepared and grown in an identical manner to the pyocyanin assay above. Aliquots of the final culture supernatant (50 μL) were added to the wells of a clear, plastic 96-well plate. To each well, 150 μL of 0.5% (w/v) elastin-congo red conjugate (Elastin Products Co.) in Tris buffer (10 mM Tris-HCl, 1 mM CaCl2, pH 7.2) was added. The plate was sealed with a polypropylene storage mat (Costar 3080) and incubated in a 37° C. shaking incubator (200 rpm) attached to a Labquake rotator for 12 h (for experiments in SCFM2) or 24 h (for experiments in MOPS medium). To quantify elastase B activity, the undigested elastin was pelleted by centrifugation of the assay plate at 1,500 g for 10 min, after which 100 μL of the supernatant was transferred to a new, clear 96-well plate, and the absorbance at 490 nm measured. Media background absorbance (measured from a “no bacteria” control) was subtracted, the resulting values growth normalized by dividing by the final OD600, and the data plotted relative to a DMSO-treated positive control.

P. aeruginosa (PAO1) [2] = assay: Elastase B assay; type: cell-based, Pseudomonas aeruginosa; details: MOPS Glutamate and Glucose media, complete or iron/phosphate depleted, 17 h, 100 μM (compounds 1, 2, 3), relative to DMSO
Experimental: A. Pyocyanin Assay Protocol. The amount of pyocyanin in P. aeruginosa culture supernatants was measured following a reported protocol (O'Loughlin et al., 2013) with modifications. A 10 mL overnight culture of P. aeruginosa PAO1 was grown for 16 h. DMSO stock solutions of test compounds (20 mM) were prepared, and 10 μL or 5 μL aliquots were added to sterile 15 mL borosilicate glass test tubes. An inoculating culture was prepared by diluting the overnight culture 1:100 into freshly prepared assay medium (see above), and 2 mL aliquots of this subculture were added to each test tube (0.5% DMSO, final). The cultures were grown for 17 h, and the final cell density measured by reading OD600. Relative pyocyanin levels were measured by first pelleting 1.5 mL of well-mixed culture at 4,000 g for 10 min, transferring 200 μL of the resulting supernatant to a clear, plastic 96-well microtiter plate, and reading absorbance at 695 nm. Media background absorbance (measured from a “no bacteria” control) was subtracted, the resulting values growth normalized by dividing by the final OD600378, and the data plotted relative to a DMSO-treated positive control. B. Rhamnolipid Assay Protocol. Rhamnolipid was quantified following a reported protocol (Koch et al., 1991) with modifications. Assay cultures were prepared and grown in an identical manner to the pyocyanin assay above. Aliquots of the final culture supernatant (1 mL) were transferred to 1 dram glass vials and extracted twice with 1 mL diethyl ether. The pooled organic fractions were evaporated to dryness, and the resulting residue reconstituted in 200 μL de-ionized water. […] After briefly cooling to room temperature, 200 μL of the resulting yellow to yellow-orange solution was transferred to a clear 96-well microtiter plate, and the absorbance at 421 nm measured. Media background absorbance (measured from a “no bacteria” control) was subtracted, the resulting values growth normalized by dividing by the final OD600, and the data plotted relative to a DMSO-treated positive control. […] The amount of elastase B in P. aeruginosa culture supernatants was measured following a reported protocol (Geske et al., 2007) with modifications. […] To quantify elastase B activity, the undigested elastin was pelleted by centrifugation of the assay plate at 1,500 g for 10 min, after which 100 μL of the supernatant was transferred to a new, clear 96-well plate, and the absorbance at 490 nm measured. Media background absorbance (measured from a “no bacteria” control) was subtracted, the resulting values growth normalized by dividing by the final OD600, and the data plotted relative to a DMSO-treated positive control.

T1 sequence (P54292 whole entry): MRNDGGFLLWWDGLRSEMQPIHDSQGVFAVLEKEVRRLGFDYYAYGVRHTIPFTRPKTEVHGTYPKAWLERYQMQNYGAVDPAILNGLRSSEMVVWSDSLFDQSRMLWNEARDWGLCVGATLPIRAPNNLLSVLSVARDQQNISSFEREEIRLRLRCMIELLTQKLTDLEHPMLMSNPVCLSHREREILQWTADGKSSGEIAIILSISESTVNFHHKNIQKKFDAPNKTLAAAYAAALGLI

O=C(N[C@H]1CCOC1=O)C1CCCC1 [compound 3]
Activation [%] RhlR (RhlR): 91%
pyocyanin production, single compound screens (P. aeruginosa (PAO1) [1]): blocked pyocyanin production under nearly all of the environmental conditions tested
elastase B production, single compound screens (P. aeruginosa (PAO1) [2]): induced additional rhamnolipid and elastase B production
